#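 In this assay, cells in 96-well plates receive the compound at five concentrations for 48 hours. Endpoints are linearly interpolated between the surrounding concentrations. Here, GI50 denotes the concentration required for 50% inhibition of growth. TGI: concentration producing complete growth inhibition.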
# Key:
# Assay in all cases: NCI-60 cell line screen, 48 h
# A498 renal = system: A498 renal
# ACHN renal = system: ACHN renal
# CAKI-1 renal = system: CAKI-1 renal
# DU-145 prostate = system: DU-145 prostate
# HS 578T breast = system: HS 578T breast
# NCI-H522 lung = system: NCI-H522 lung
# RXF 393 renal = system: RXF 393 renal
# SF-268 CNS = system: SF-268 CNS
# SF-539 CNS = system: SF-539 CNS
# SK-MEL-2 melanoma = system: SK-MEL-2 melanoma
# SK-OV-3 ovarian = system: SK-OV-3 ovarian
# SNB-75 CNS = system: SNB-75 CNS
# TK-10 renal = system: TK-10 renal
# UO-31 renal = system: UO-31 renal
# 786-0 renal = system: 786-0 renal
# A549 NSCLC = system: A549 NSCLC
# BT-549 breast = system: BT-549 breast
# CCRF-CEM leukemia = system: CCRF-CEM leukemia
# COLO 205 colon = system: COLO 205 colon
# EKVX NSCLC = system: EKVX NSCLC
# HCC-2998 colon = system: HCC-2998 colon
# HCT-15 colon = system: HCT-15 colon
# HL-60(TB) leukemia = system: HL-60(TB) leukemia
# HOP-62 NSCLC = system: HOP-62 NSCLC
# HOP-92 NSCLC = system: HOP-92 NSCLC
# HT29 colon = system: HT29 colon
# IGROV1 ovarian = system: IGROV1 ovarian
# K-562 leukemia = system: K-562 leukemia
# KM12 colon = system: KM12 colon
# LOX IMVI melanoma = system: LOX IMVI melanoma
# M14 melanoma = system: M14 melanoma
# MALME-3M melanoma = system: MALME-3M melanoma
# MCF7 breast = system: MCF7 breast
# MDA-MB-231 breast = system: MDA-MB-231 breast
# MDA-MB-435 = system: MDA-MB-435
# MOLT-4 leukemia = system: MOLT-4 leukemia
# NCI-H226 lung = system: NCI-H226 lung
# NCI-H23 lung = system: NCI-H23 lung
# NCI-H460 lung = system: NCI-H460 lung
# NCI/ADR-RES ovarian = system: NCI/ADR-RES ovarian
# OVCAR-3 ovarian = system: OVCAR-3 ovarian
# OVCAR-4 ovarian = system: OVCAR-4 ovarian
# OVCAR-5 ovarian = system: OVCAR-5 ovarian
# PC-3 prostate = system: PC-3 prostate
# RPMI-8226 leukemia = system: RPMI-8226 leukemia
# SF-295 CNS = system: SF-295 CNS
# SK-MEL-28 melanoma = system: SK-MEL-28 melanoma
# SK-MEL-5 melanoma = system: SK-MEL-5 melanoma
# SNB-19 CNS = system: SNB-19 CNS
# SR leukemia = system: SR leukemia
# SW-620 colon = system: SW-620 colon
# T-47D breast = system: T-47D breast
# U251 CNS = system: U251 CNS
# UACC-257 melanoma = system: UACC-257 melanoma
# UACC-62 melanoma = system: UACC-62 melanoma
# HCT-116 colon = system: HCT-116 colon
# OVCAR-8 ovarian = system: OVCAR-8 ovarian
# SN12C renal = system: SN12C renal
structure (smiles),measurement,setting,value
Cc1ccc(S(=O)(=O)OC[C@]23CCC(C)(C)C[C@H]2C2=CC[C@@H]4[C@@]5(C)CCCNC(C)(C)[C@@H]5CC[C@@]4(C)[C@]2(C)CC3)cc1,GI50,A498 renal,5.99 µM
same,TGI,A498 renal,21.4 µM
same,GI50,ACHN renal,1.69 µM
same,TGI,ACHN renal,3.07 µM
same,GI50,CAKI-1 renal,1.45 µM
same,TGI,CAKI-1 renal,2.82 µM
same,GI50,DU-145 prostate,1.79 µM
same,TGI,DU-145 prostate,3.37 µM
same,GI50,HS 578T breast,1.82 µM
same,TGI,HS 578T breast,4.08 µM
same,GI50,NCI-H522 lung,1.69 µM
same,TGI,NCI-H522 lung,3.38 µM
same,GI50,RXF 393 renal,1.38 µM
same,TGI,RXF 393 renal,2.78 µM
same,GI50,SF-268 CNS,2.32 µM
same,TGI,SF-268 CNS,8.44 µM
same,GI50,SF-539 CNS,1.71 µM
same,TGI,SF-539 CNS,3.15 µM
same,GI50,SK-MEL-2 melanoma,2.19 µM
same,TGI,SK-MEL-2 melanoma,4.83 µM
same,GI50,SK-OV-3 ovarian,1.76 µM
same,TGI,SK-OV-3 ovarian,3.26 µM
same,GI50,SNB-75 CNS,1.48 µM
same,TGI,SNB-75 CNS,2.94 µM
same,GI50,TK-10 renal,1.77 µM
same,TGI,TK-10 renal,3.33 µM
same,GI50,UO-31 renal,1.29 µM
same,TGI,UO-31 renal,2.68 µM
O=S(=O)(C(=Ic1ccccc1)S(=O)(=O)C(F)(F)C(F)(F)C(F)(F)C(F)(F)F)C(F)(F)C(F)(F)C(F)(F)C(F)(F)F,TGI,786-0 renal,29.5 µM
same,TGI,A498 renal,28.6 µM
same,TGI,A549 NSCLC,34.3 µM
same,TGI,ACHN renal,19.3 µM
same,TGI,BT-549 breast,28.5 µM
same,TGI,CAKI-1 renal,25.9 µM
same,TGI,CCRF-CEM leukemia,18.1 µM
same,TGI,COLO 205 colon,21.8 µM
same,TGI,EKVX NSCLC,37.1 µM
same,TGI,HCC-2998 colon,40.4 µM
same,TGI,HCT-15 colon,33.7 µM
same,TGI,HL-60(TB) leukemia,62 µM
same,TGI,HOP-62 NSCLC,30.7 µM
same,TGI,HOP-92 NSCLC,23.1 µM
same,TGI,HS 578T breast,56.9 µM
same,TGI,HT29 colon,31.4 µM
same,TGI,IGROV1 ovarian,36.9 µM
same,TGI,K-562 leukemia,16.4 µM
same,TGI,KM12 colon,41.7 µM
same,TGI,LOX IMVI melanoma,28 µM
same,TGI,M14 melanoma,28.2 µM
same,TGI,MALME-3M melanoma,26.1 µM
same,TGI,MCF7 breast,18.1 µM
same,TGI,MDA-MB-231 breast,55.4 µM
same,TGI,MDA-MB-435,36.8 µM
same,TGI,MOLT-4 leukemia,13.8 µM
same,TGI,NCI-H226 lung,15 µM
same,TGI,NCI-H23 lung,39.7 µM
same,TGI,NCI-H460 lung,32.2 µM
same,TGI,NCI-H522 lung,6.09 µM
same,TGI,NCI/ADR-RES ovarian,59.8 µM
same,TGI,OVCAR-3 ovarian,29.3 µM
same,TGI,OVCAR-4 ovarian,14.7 µM
same,TGI,OVCAR-5 ovarian,30.9 µM
same,TGI,PC-3 prostate,31.6 µM
same,TGI,RPMI-8226 leukemia,86.4 µM
same,TGI,SF-268 CNS,42.7 µM
same,TGI,SF-295 CNS,30.6 µM
same,TGI,SF-539 CNS,28.8 µM
same,TGI,SK-MEL-28 melanoma,29.4 µM
same,TGI,SK-MEL-5 melanoma,27.5 µM
same,TGI,SK-OV-3 ovarian,30.4 µM
same,TGI,SNB-19 CNS,28.5 µM
same,TGI,SNB-75 CNS,28.5 µM
same,TGI,SR leukemia,21.9 µM
same,TGI,SW-620 colon,20.5 µM
same,TGI,T-47D breast,32.5 µM
same,TGI,TK-10 renal,29.9 µM
same,TGI,U251 CNS,29.5 µM
same,TGI,UACC-257 melanoma,32.8 µM
same,TGI,UACC-62 melanoma,33.4 µM
same,TGI,UO-31 renal,25.8 µM
NC(=O)c1ncn(CC2(CO)CCC2)c1N,GI50,SNB-75 CNS,10.8 µM
COc1cc2c(c(OC)c1OC)C(=O)CC(c1cccc(NC(=O)c3ccc(Br)cc3)c1)O2 (stereo not drawn),GI50,786-0 renal,2.97 µM
same,TGI,786-0 renal,> 100 µM
same,GI50,A498 renal,1.55 µM
same,TGI,A498 renal,8.15 µM
same,GI50,A549 NSCLC,3.57 µM
same,TGI,A549 NSCLC,> 100 µM
same,GI50,ACHN renal,3.02 µM
same,TGI,ACHN renal,> 100 µM
same,GI50,BT-549 breast,2.09 µM
same,TGI,BT-549 breast,6.39 µM
same,GI50,CAKI-1 renal,2.25 µM
same,TGI,CAKI-1 renal,> 100 µM
same,GI50,COLO 205 colon,3.17 µM
same,TGI,COLO 205 colon,> 100 µM
same,GI50,DU-145 prostate,2.85 µM
same,TGI,DU-145 prostate,> 100 µM
same,GI50,EKVX NSCLC,2.5 µM
same,TGI,EKVX NSCLC,> 100 µM
same,GI50,HCC-2998 colon,7.49 µM
same,TGI,HCC-2998 colon,> 100 µM
same,GI50,HCT-116 colon,2.63 µM
same,TGI,HCT-116 colon,> 100 µM
same,GI50,HCT-15 colon,2.31 µM
same,TGI,HCT-15 colon,> 100 µM
same,GI50,HL-60(TB) leukemia,1.58 µM
same,TGI,HL-60(TB) leukemia,4.14 µM
same,GI50,HOP-62 NSCLC,2.89 µM
same,TGI,HOP-62 NSCLC,> 100 µM
same,GI50,HS 578T breast,4.1 µM
same,TGI,HS 578T breast,> 100 µM
same,GI50,HT29 colon,2.77 µM
same,TGI,HT29 colon,> 100 µM
same,GI50,IGROV1 ovarian,3.05 µM
same,TGI,IGROV1 ovarian,> 100 µM
same,GI50,K-562 leukemia,1.4 µM
same,TGI,K-562 leukemia,> 100 µM
same,GI50,LOX IMVI melanoma,2.41 µM
same,TGI,LOX IMVI melanoma,> 100 µM
same,GI50,M14 melanoma,2.08 µM
same,TGI,M14 melanoma,7.49 µM
same,GI50,MALME-3M melanoma,1.47 µM
same,TGI,MALME-3M melanoma,7.39 µM
same,GI50,MCF7 breast,1.9 µM
same,TGI,MCF7 breast,49.3 µM
same,GI50,MDA-MB-435,1.46 µM
same,TGI,MDA-MB-435,4.46 µM
same,GI50,MOLT-4 leukemia,1.54 µM
same,TGI,MOLT-4 leukemia,4.19 µM
same,GI50,NCI-H226 lung,3 µM
same,TGI,NCI-H226 lung,> 100 µM
same,GI50,NCI-H23 lung,2.87 µM
same,TGI,NCI-H23 lung,> 100 µM
same,GI50,NCI-H460 lung,3.27 µM
same,TGI,NCI-H460 lung,> 100 µM
same,GI50,NCI-H522 lung,1.49 µM
same,TGI,NCI-H522 lung,6.43 µM
same,GI50,NCI/ADR-RES ovarian,2.41 µM
same,TGI,NCI/ADR-RES ovarian,9.45 µM
same,GI50,OVCAR-4 ovarian,1.6 µM
same,TGI,OVCAR-4 ovarian,> 100 µM
same,GI50,OVCAR-5 ovarian,> 100 µM
same,TGI,OVCAR-5 ovarian,> 100 µM
same,GI50,OVCAR-8 ovarian,2.9 µM
same,TGI,OVCAR-8 ovarian,9.19 µM
same,GI50,PC-3 prostate,2.33 µM
same,TGI,PC-3 prostate,8.59 µM
same,GI50,RPMI-8226 leukemia,1.44 µM
same,TGI,RPMI-8226 leukemia,3.93 µM
same,GI50,RXF 393 renal,4.07 µM
same,TGI,RXF 393 renal,> 100 µM
same,GI50,SF-268 CNS,2.57 µM
same,TGI,SF-268 CNS,> 100 µM
same,GI50,SF-295 CNS,2.6 µM
same,TGI,SF-295 CNS,> 100 µM
same,GI50,SF-539 CNS,3.86 µM
same,TGI,SF-539 CNS,> 100 µM
same,GI50,SK-MEL-2 melanoma,2.16 µM
same,TGI,SK-MEL-2 melanoma,5.38 µM
same,GI50,SK-MEL-28 melanoma,2.98 µM
same,TGI,SK-MEL-28 melanoma,> 100 µM
same,GI50,SK-MEL-5 melanoma,1.62 µM
same,TGI,SK-MEL-5 melanoma,3.32 µM
same,GI50,SK-OV-3 ovarian,4.32 µM
same,TGI,SK-OV-3 ovarian,> 100 µM
same,GI50,SN12C renal,3.06 µM
same,TGI,SN12C renal,> 100 µM
same,GI50,SNB-19 CNS,4.25 µM
same,TGI,SNB-19 CNS,> 100 µM
same,GI50,SW-620 colon,3.83 µM
same,TGI,SW-620 colon,> 100 µM
same,GI50,T-47D breast,1.41 µM
same,TGI,T-47D breast,5.98 µM
same,GI50,TK-10 renal,4.44 µM
same,TGI,TK-10 renal,> 100 µM
same,GI50,U251 CNS,3.07 µM
same,TGI,U251 CNS,> 100 µM
same,GI50,UACC-257 melanoma,2.96 µM
same,TGI,UACC-257 melanoma,9.04 µM
same,GI50,UACC-62 melanoma,1.57 µM
same,TGI,UACC-62 melanoma,4.09 µM
same,GI50,UO-31 renal,1.49 µM
same,TGI,UO-31 renal,> 100 µM
